The structures appear in SMILES notation.

T1 sequence (Q15722 whole entry): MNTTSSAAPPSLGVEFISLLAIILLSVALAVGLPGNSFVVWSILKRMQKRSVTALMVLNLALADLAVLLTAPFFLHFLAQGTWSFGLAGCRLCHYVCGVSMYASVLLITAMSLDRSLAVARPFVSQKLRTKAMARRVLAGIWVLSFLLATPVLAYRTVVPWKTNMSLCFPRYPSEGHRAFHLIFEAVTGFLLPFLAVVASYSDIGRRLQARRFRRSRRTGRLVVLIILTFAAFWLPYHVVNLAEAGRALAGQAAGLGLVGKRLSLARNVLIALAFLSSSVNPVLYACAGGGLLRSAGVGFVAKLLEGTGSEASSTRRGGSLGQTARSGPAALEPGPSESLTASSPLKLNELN

The assay addresses T1, human BLT1 receptor (Homo sapiens, UniProt Q15722).
T1 construct: expressed in transfected cells; host or cells: HEK293
In words: BLT-1 cAMP Assay. As to conditions: HEK293 cells recombinantly expressing human BLT1; antagonist activity vs forskolin 4 μM and LTB4 2 nM; cAMP (CisBio kit). The assay is classed as cell-based. As for the experimental part: The ability of compounds to antagonize the human BLT1 receptor was determined using a kit to measure changes in intracellular cyclic AMP levels (cAMP dynamic assay kit, Cisbio Cat. No. 62AM4PEC). […] The cell suspension was centrifuged at 200×g for 10 min and then resuspended in fresh assay medium to a density of 2.5×10^5 cells/mL. […] All subsequent liquid additions were performed using a BIORAPTR (FRD; Beckman Coulter). Next, 5 μL of cell suspension was added and incubated for 20 min. at 37° C. and 5% CO2 in a humidified plastic tray.
The levels of cAMP were detected using the CisBio kit following the manufacturer's instructions: cAMP-d2 vial was reconstituted with distilled water and then diluted accordingly with conjugate & lysis buffer. 5 µL of cAMP-d2 working solution was added to all of the wells of the assay plate. cAMP-Cryptate vial was reconstituted with distilled water and then diluted accordingly with conjugate & lysis buffer. 5 µL of cAMP-Cryptate working solution were added to the assay plate. The assay plate was shaken for 3 minutes and incubated at room temperature for 45 minutes, then read on Perkin Elmer Envision. cAMP standard curve and fit data were plotted using a 4 parameter dose response curve fitting algorithm to fit curve. […] After normalization to treated and untreated controls, the percent effect of signal at each compound concentration was calculated. The plot of percent effect versus the log of compound concentration was fit with a 4-parameter concentration response equation to calculate EC50 values.
As a reminder, the EC50 is the concentration at which the effect is half-maximal. With `O=S(=O)(Nc1ccccc1-c1ccc2c(c1)OC[C@@H](Cc1ccncc1)[C@@H]2O)C(F)(F)F` (single isomer, unassigned) [Example 25, 1,1,1-trifluoro-N-{2-[(3R,4S or 3S,4R)-4-hydroxy-3-(pyridin-4-ylmethyl)-3,4-dihydro-2H-chromen-7-yl]phenyl}methanesulfonamide], the EC50 was 412 nM.

For the compound `O=S(=O)(CC(F)(F)F)Nc1ncc(F)cc1-c1ccc2c(c1)OC[C@@H](Cc1ccccn1)[C@@H]2O` (single isomer, unassigned) [Example 85], the EC50 came to 63 nM. In the case of `CC(c1ccccn1)C1COc2cc(-c3cc(F)ccc3NS(=O)(=O)C(F)(F)F)ccc2C1O` (single isomer, unassigned) [Example 100, 1,1,1-trifluoro-N-(4-fluoro-2-(4-hydroxy-3-(1-(pyridin-2-yl)ethyl)chroman-7-yl)phenyl) methanesulfonamide], the EC50 was 72 nM. With `O=S(=O)(CC(F)(F)F)Nc1ncc(C(F)(F)F)nc1-c1ccc2c(c1)OC[C@@H](Cc1ccccn1)[C@@H]2O` (single isomer, unassigned) [Example 88, 2,2,2-Trifluoro-N-(3-((3,4-trans)-4-hydroxy-3-(pyridin-2-ylmethyl)chroman-7-yl)-5-(trifluoromethyl)pyrazin-2-yl)ethanesulfonamide], the EC50 stood at 285 nM.

In the case of `CS(=O)(=O)Nc1ccccc1-c1ccc2c(c1)OC[C@@H](Cc1ccccn1)[C@@H]2O` (single isomer, unassigned) [Example 73, N-{2-[(3R,4S or 3S,4R)-4-hydroxy-3-(pyridin-2-ylmethyl)-3,4-dihydro-2H-chromen-7-yl]phenyl}methanesulfonamide], the EC50 turned out to be 193 nM. The same measure for `Cc1cnc(C[C@H]2COc3cc(-c4ccccc4NS(=O)(=O)C(F)(F)F)ccc3[C@@H]2O)s1` (single isomer, unassigned) [Example 53, 1,1,1-trifluoro-N-(2-{(3R,4S or 3S,4R)-4-hydroxy-3-[(5-methyl-1,3-thiazol-2-yl)methyl]-3,4-dihydro-2H-chromen-7-yl}phenyl)methanesulfonamide]: 69 nM; for `O=S(=O)(Nc1ccccc1-c1ccc2c(c1)OC[C@@H](Cc1cscn1)[C@H]2O)C(F)(F)F` (racemic) [Example 31, 1,1,1-trifluoro-N-(2-(3,4-rac-cis)-4-hydroxy-3-(thiazol-4-ylmethyl)chroman-7-yl)phenyl)methanesulfonamide]: 1370 nM. Consider `O=S(=O)(Nc1ccccc1-c1ccc2c(c1)OC[C@H](Cc1ccccn1)[C@H]2O)C(F)(F)F` [Example 54, 1,1,1-trifluoro-N-{2-[(3S,4R)-4-hydroxy-3-(pyridin-2-ylmethyl)-3,4-dihydro-2H-chromen-7-yl]phenyl}-methanesulfonamide], for which the concentration for a half-maximal effect (EC50) is 55 nM. Take `O=S(=O)(Nc1ccccc1-c1ccc2c(c1)OC[C@@H](Cc1ccc(-c3ccccc3)cn1)[C@@H]2O)C(F)(F)F` (racemic) [Example 38, 1,1,1-Trifluoro-N-(2-{(rac-trans)-4-hydroxy-3-((5-phenylpyridin-2-yl)methyl)chroman-7-yl)phenyl)methanesulfonamide]: the EC50 amounted to 4 nM. For `Cn1nc(-c2ccccc2)cc1C[C@@H]1COc2cc(-c3ccccc3NS(=O)(=O)C(F)(F)F)ccc2[C@H]1O` (single isomer, unassigned) [Example 37, 1,1,1-Trifluoro-N-(2-((3R,4S or 3S,4R)-4-hydroxy-3-((1-methyl-3-phenyl-1H-pyrazol-5-yl)methyl)chroman-7-yl)phenyl)methanesulfonamide], the EC50 amounted to 754 nM. To `O=S(=O)(Nc1ccccc1-c1ccc2c(c1)OC[C@H](Cc1ccc(-c3ccccc3)cc1)[C@H]2O)C(F)(F)F` (single isomer, unassigned) [Example 68, N-{2-[(3R,4S or 3S,4R)-3-(biphenyl-4-ylmethyl)-4-hydroxy-3,4-dihydro-2H-chromen-7-yl]phenyl}-1,1,1-trifluoromethanesulfonamide] belongs 5.3 nM; to `O=S(=O)(Nc1ccccc1-c1ccc2c(c1)OC[C@H](Cc1cscn1)[C@H]2O)C(F)(F)F` (single isomer, unassigned) [Example 50, 1,1,1-trifluoro-N-{2-[(3R,4S or 3S,4R)-4-hydroxy-3-(1,3-thiazol-4-ylmethyl)-3,4-dihydro-2H-chromen-7-yl]phenyl}-methanesulfonamide], 29 nM. The same measure for `O=S(=O)(Nc1ccccc1-c1ccc2c(c1)OC[C@@H](Cc1ccc(-c3ccccc3)cc1)[C@@H]2O)C(F)(F)F` (racemic) [Example 4, N-(2-((3,4-Rac-trans)-3-([1,1′-biphenyl]-4-ylmethyl)-4-hydroxychroman-7-yl)phenyl)-1,1,1-trifluoromethanesulfonamide]: 6 nM.

In the case of `O=S(=O)(Nc1ccccc1-c1ccc2c(c1)OC[C@@H](Cc1cscn1)[C@@H]2O)C(F)(F)F` (single isomer, unassigned) [Example 51, 1,1,1-trifluoro-N-{2-[(3S,4R or 3R,4S)-4-hydroxy-3-(1,3-thiazol-4-ylmethyl)-3,4-dihydro-2H-chromen-7-yl]phenyl}-methanesulfonamide], the concentration for a half-maximal effect (EC50) was determined as 808 nM. Regarding `CS(=O)(=O)Nc1ccccc1-c1ccc2c(c1)OC[C@H](Cc1ccccn1)[C@H]2O` (single isomer, unassigned) [Example 72, N-{2-[(3S,4R or 3R,4S)-4-hydroxy-3-(pyridin-2-ylmethyl)-3,4-dihydro-2H-chromen-7-yl]phenyl}methanesulfonamide], the EC50 came to 2980 nM. To `Cc1nnc(C[C@@H]2COc3cc(-c4ccccc4NS(=O)(=O)C(F)(F)F)ccc3[C@H]2O)s1` (single isomer, unassigned) [Example 70, 1,1,1-Trifluoro-N-(2-{(3,4-trans)-4-hydroxy-3-[(5-methyl-1,3,4-thiadiazol-2-yl)methyl]-3,4-dihydro-2H-chromen-7-yl}phenyl)-methanesulfonamide] belongs 261 nM.

`CC(c1csc(-c2ccccc2)n1)[C@@H]1COc2cc(-c3ccccc3NS(=O)(=O)C(F)(F)F)ccc2[C@H]1O` (single isomer, unassigned) [Example 92]: the EC50 was determined as 80 nM. `O=S(=O)(Nc1ccccc1-c1ccc2c(c1)OCC(Cc1ccccc1)C2O)C(F)(F)F` (racemic) [Example 2, N-(2-((3,4-Rac-trans)-3-benzyl-4-hydroxychroman-7-yl)phenyl)-1,1,1-trifluoromethanesulfonamide]: the concentration for a half-maximal effect (EC50) was determined as 31 nM. Take `Cc1nc(C[C@@H]2COc3cc(-c4ccccc4NS(=O)(=O)C(F)(F)F)ccc3[C@H]2O)cs1` (racemic) [Example 16, 1,1,1-Trifluoro-N-(2-{(rac-trans)-4-hydroxy-3-[(2-methyl-1,3-thiazol-4-yl)methyl]-3,4-dihydro-2H-chromen-7-yl}phenyl)methanesulfonamide]: the EC50 is 826 nM.

`O=S(=O)(CC(F)(F)F)Nc1ncccc1-c1ccc2c(c1)OC[C@@H](Cc1ccccn1)[C@@H]2O` (single isomer, unassigned) [Example 77, 2,2,2-Trifluoro-N-(3-((3R,4S or 3S,4R)-4-hydroxy-3-(pyridin-2-ylmethyl)chroman-7-yl)pyridin-2-yl)ethanesulfonamide]: the half-maximal effective concentration (EC50) is 118 nM. On to `O=S(=O)(Nc1ccccc1-c1ccc2c(c1)OC[C@@H](Cc1cncs1)[C@H]2O)C(F)(F)F` (racemic) [Example 10, 1,1,1-Trifluoro-N-(2-((3,4-rac-cis)-4-hydroxy-3-(thiazol-5-ylmethyl)chroman-7-yl)phenyl)methanesulfonamide], for which the half-maximal effective concentration (EC50) worked out at 4540 nM. On to `O=S(=O)(Nc1ccccc1-c1ccc2c(c1)OC[C@@H](Cc1nnc(-c3ccc(F)cc3)o1)[C@@H]2O)C(F)(F)F` (relative stereo) [Example 44, 1,1,1-Trifluoro-N-(2-((3,4-trans)-3-((5-(4-fluorophenyl)-1,3,4-oxadiazol-2-yl)methyl)-4-hydroxychroman-7-yl)phenyl)methanesulfonamide], for which the half-maximal effective concentration (EC50) amounted to 1550 nM.

On to `O=S(=O)(Nc1ccccc1-c1ccc2c(c1)OCC(Cc1cccs1)C2O)C(F)(F)F` (racemic) [Example 33, 1,1,1-Trifluoro-N-(2-((3,4-rac-trans)-4-hydroxy-3-(thiophen-2-ylmethyl)chroman-7-yl)phenyl)methanesulfonamide], for which the concentration for a half-maximal effect (EC50) worked out at 53 nM. The same measure for `O=S(=O)(Nc1ccccc1-c1ccc2c(c1)OC[C@H](Cc1ccncc1)[C@H]2O)C(F)(F)F` (single isomer, unassigned) [Example 26, 1,1,1-trifluoro-N-{2-[(3S,4R or 3R,4S)-4-hydroxy-3-(pyridin-4-ylmethyl)-3,4-dihydro-2H-chromen-7-yl]phenyl}methanesulfonamide]: 121 nM; for `O=S(=O)(Nc1ccccc1-c1ccc2c(c1)OC[C@@H](Cc1ccc(-c3ccccc3)cc1)[C@H]2O)C(F)(F)F` (racemic) [Example 3, N-(2-((3,4-Rac-cis)-3-([1,1′-biphenyl]-4-ylmethyl)-4-hydroxychroman-7-yl)phenyl)-1,1,1-trifluoromethanesulfonamide]: 2290 nM.
